The target in experiment [1] is TEAD1 (Homo sapiens (Human), UniProt P28347). Put plainly: TR-FRET lipid pocket probe competition assay (Lipid HTRF), TEAD1.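 Note: His-tagged TEAD1 with biotinylated probe, detected via Europium anti-His and XL665 streptavidin, probe displacement lowers TR-FRET signal, IC50 from four-parameter nonlinear fit.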 It counts as binding. Conditions: 4 hours pre-incubation; read-out: Lipid HTRF TEAD1 IC50. In general terms: Time-resolved FRET reads energy transfer from a long-lived donor to a nearby acceptor.
TEAD1, sequence (P28347 whole entry, species assumed): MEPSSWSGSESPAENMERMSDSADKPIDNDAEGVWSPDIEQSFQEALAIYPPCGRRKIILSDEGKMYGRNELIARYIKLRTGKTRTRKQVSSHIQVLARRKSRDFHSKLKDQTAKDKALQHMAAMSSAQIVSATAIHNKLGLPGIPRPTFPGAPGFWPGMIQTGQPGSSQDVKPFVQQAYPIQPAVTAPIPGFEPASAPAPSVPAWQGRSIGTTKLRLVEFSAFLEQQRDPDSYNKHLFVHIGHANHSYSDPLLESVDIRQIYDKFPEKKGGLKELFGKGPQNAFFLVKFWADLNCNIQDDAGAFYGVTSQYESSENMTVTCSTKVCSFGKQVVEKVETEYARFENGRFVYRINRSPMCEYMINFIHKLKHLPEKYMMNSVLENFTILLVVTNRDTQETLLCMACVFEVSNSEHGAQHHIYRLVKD
Experiment [2] addresses TEAD3 (Homo sapiens (Human), UniProt Q99594). Put plainly: TR-FRET lipid pocket probe competition assay (Lipid HTRF), TEAD3. It counts as binding. The conditions noted are these: 4 hours pre-incubation; read-out: Lipid HTRF TEAD3 IC50.
The target of experiment [3] is TEAD4 (Homo sapiens (Human), UniProt Q15561). Put plainly: TR-FRET lipid pocket probe competition assay (Lipid HTRF), TEAD4.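 Note: His-tagged TEAD4 with biotinylated lipid-pocket probe, read by Europium anti-His and XL665 streptavidin, where probe displacement lowers the TR-FRET signal, IC50 from a four-parameter fit.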 It counts as binding. Conditions: 4 hours pre-incubation; read-out: Lipid HTRF TEAD4 IC50.
TEAD4, sequence (Q15561 whole entry, species assumed): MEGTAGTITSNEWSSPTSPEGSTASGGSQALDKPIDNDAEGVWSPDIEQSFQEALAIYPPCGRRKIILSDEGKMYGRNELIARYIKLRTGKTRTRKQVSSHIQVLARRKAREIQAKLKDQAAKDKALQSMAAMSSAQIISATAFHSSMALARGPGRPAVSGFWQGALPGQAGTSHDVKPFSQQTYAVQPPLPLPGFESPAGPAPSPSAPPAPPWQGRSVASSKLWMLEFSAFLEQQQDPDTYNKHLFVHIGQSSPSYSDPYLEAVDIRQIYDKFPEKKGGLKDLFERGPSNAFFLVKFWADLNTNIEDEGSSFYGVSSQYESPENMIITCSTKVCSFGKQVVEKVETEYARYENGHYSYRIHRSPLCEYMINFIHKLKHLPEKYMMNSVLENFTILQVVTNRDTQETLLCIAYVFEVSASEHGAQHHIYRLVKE
Method: His-tagged TEAD proteins are pre-incubated with TEAD project compounds for 30 minutes or 4 hours at room temperature. Biotinylated lipid pocket probes are then added to the TEAD/Compound mixture and incubated for 60 minutes at room temperature. The lipid pocket probe competes with the test compound for the TEAD lipid pocket until equilibrium is reached. After 60 minutes, Europium labelled anti-His (Perkin Elmer #AD0110) and XL665 labelled streptavidin (CIS Bio 610SAXAC) are added to the TEAD/test compound/lipid pocket mixture and incubated for 30 minutes or 4 hours. […] If a TEAD lipid pocket binder such as binds and displaces the lipid pocket probe, the disruption of the TEAD:probe interaction results in a decrease in TR-FRET signal. The potency of compounds as TEAD lipid pocket binders is determined by IC50 value generated using a non-linear 4 parameter curve fit.
For experiment [4], the target named is TEAD2 (Homo sapiens (Human), UniProt Q15562).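 Note: TR-FRET competition assay with His-tagged TEAD protein and a biotinylated lipid pocket probe, compound pre-incubated 30 min or 4 h at room temperature, displacement lowers signal.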
TEAD2, sequence (Q15562 whole entry, species assumed): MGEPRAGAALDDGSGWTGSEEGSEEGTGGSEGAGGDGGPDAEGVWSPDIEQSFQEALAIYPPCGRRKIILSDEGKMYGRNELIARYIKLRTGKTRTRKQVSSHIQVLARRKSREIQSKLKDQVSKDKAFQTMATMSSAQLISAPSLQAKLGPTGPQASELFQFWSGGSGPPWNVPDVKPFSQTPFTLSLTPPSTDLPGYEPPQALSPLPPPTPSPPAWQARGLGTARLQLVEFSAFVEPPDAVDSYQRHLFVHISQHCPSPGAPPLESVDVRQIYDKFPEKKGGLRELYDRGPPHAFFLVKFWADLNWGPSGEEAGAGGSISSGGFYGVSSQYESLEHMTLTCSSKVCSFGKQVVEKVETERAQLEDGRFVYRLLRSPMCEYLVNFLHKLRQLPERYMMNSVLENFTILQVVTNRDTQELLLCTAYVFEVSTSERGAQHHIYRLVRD

TEAD3, sequence (Q99594 whole entry, species assumed): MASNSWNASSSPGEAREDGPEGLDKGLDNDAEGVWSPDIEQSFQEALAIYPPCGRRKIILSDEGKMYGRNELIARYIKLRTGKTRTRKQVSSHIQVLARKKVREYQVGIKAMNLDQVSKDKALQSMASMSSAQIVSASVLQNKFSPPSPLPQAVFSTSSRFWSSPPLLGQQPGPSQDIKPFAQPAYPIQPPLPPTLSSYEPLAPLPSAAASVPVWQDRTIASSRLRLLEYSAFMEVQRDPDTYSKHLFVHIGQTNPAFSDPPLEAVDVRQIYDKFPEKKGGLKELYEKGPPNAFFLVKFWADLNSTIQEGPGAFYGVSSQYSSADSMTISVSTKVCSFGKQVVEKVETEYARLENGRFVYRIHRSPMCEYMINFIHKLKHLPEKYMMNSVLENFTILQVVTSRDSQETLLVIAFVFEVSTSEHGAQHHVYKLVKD

Turning to `C=CC(=O)NCc1nn(-c2ccc(OC(F)(F)F)cc2)c2nccc(N3CC(O)(CO)C3)c12` [Compound 124, N-((4-(3-hydroxy-3-(hydroxymethyl)azetidin-1-yl)-1-(4-(trifluoromethoxy)phenyl)-1H-pyrazolo[3,4-b]pyridin-3-yl)methyl)acrylamide], the IC50 (in general, the concentration that inhibits the measured activity by half) in experiment [1] was determined as 41 nM; in experiment [2], 930 nM; in experiment [3] it was 9.9 nM; in experiment [4] it was 200 nM.

For `C=C(F)C(=O)N1CC(c2nn(-c3ccc(OC(F)(F)F)cc3)c3nccc(N4CC[C@@H](O)C4=O)c23)C1` [Compound 125, (R)-1-(3-(1-(2-fluoroacryloyl)azetidin-3-yl)-1-(4-(trifluoromethoxy)phenyl)-1H-pyrazolo[3,4-b]pyridin-4-yl)-3-hydroxypyrrolidin-2-one], the IC50 came to 800 nM in experiment [1], 1700 nM in experiment [2], 44 nM in experiment [3] and 870 nM in experiment [4].

On to `C=CC(=O)NCc1nn(-c2ccc(OC(F)(F)F)cc2)c2nccc(OCCO)c12` [Compound 126, N-((4-(2-Hydroxyethoxy)-1-(4-(trifluoromethoxy)phenyl)-1H-pyrazolo[3,4-b]pyridin-3-yl)methyl)acrylamide], for which the half-maximal inhibitory concentration (IC50) amounted to 22 nM in experiment [1], 50000 nM in experiment [2], 4.4 nM in experiment [3] and 120 nM in experiment [4].

On to `O=C(/C=C/CO)N1CC(c2nn(-c3ccc(OC(F)(F)F)cc3)c3nccc(Cl)c23)C1` [Compound 127, (E)-1-(3-(4-Chloro-1-(4-(trifluoromethoxy)phenyl)-1H-pyrazolo[3,4-b]pyridin-3-yl)azetidin-1-yl)-4-hydroxybut-2-en-1-one], for which the IC50 stood at 7.9 nM in experiment [1], 13 nM in experiment [2], 3.3 nM in experiment [3] and 17 nM in experiment [4].

With `O=C(C#CCO)NCc1nn(-c2ccc(OC(F)(F)F)cc2)c2nccc(CO)c12` [Compound 128, 4-Hydroxy-N-((4-(hydroxymethyl)-1-(4-(trifluoromethoxy)phenyl)-1H-pyrazolo[3,4-b]pyridin-3-yl)methyl)but-2-ynamide], the half-inhibitory concentration (IC50) stood at 6.5 nM in experiment [1], 72 nM in experiment [2], 3.6 nM in experiment [3] and 12 nM in experiment [4].

Take `CC#CC(=O)N1CC(c2nn(-c3ccc(OC(F)(F)F)cc3)c3nccc([C@H](O)CO)c23)C1` [Compound 129, (S)-1-(3-(4-(1,2-Dihydroxyethyl)-1-(4-(trifluoromethoxy)phenyl)-1H-pyrazolo[3,4-b]pyridin-3-yl)azetidin-1-yl)but-2-yn-1-one]: the half-maximal inhibitory concentration (IC50) in experiment [1] stood at 110 nM; in experiment [2], 200 nM; in experiment [3], 43 nM; in experiment [4], 20 nM.

As for `C=C(F)C(=O)N1CC(c2nn(-c3ccc(OC(F)(F)F)cc3)c3nccc(-c4c[nH]cn4)c23)C1` [Compound 130, 1-(3-(4-(1H-Imidazol-4-yl)-1-(4-(trifluoromethoxy)phenyl)-1H-pyrazolo[3,4-b]pyridin-3-yl)azetidin-1-yl)-2-fluoroprop-2-en-1-one], the 50% inhibitory concentration (IC50) is 380 nM in experiment [1], 5400 nM in experiment [2], 540 nM in experiment [3] and 1000 nM in experiment [4].

`C=CC(=O)NCc1nn(-c2ccc(OC(F)(F)F)cc2)c2nccc(-c3cn[nH]c3)c12` [Compound 134, N-((4-(1H-Pyrazol-4-yl)-1-(4-(trifluoromethoxy)phenyl)-1H-pyrazolo[3,4-b]pyridin-3-yl)methyl)acrylamide]: the IC50 in experiment [1] stood at 14 nM; in experiment [2] it was 360 nM; in experiment [3], 22 nM; in experiment [4], 43 nM.

With `C=CC(=O)NCc1nn(-c2ccc(OC(F)(F)F)cc2)c2nccc(C(C)(C)O)c12` [Compound 135, N-((4-(2-Hydroxypropan-2-yl)-1-(4-(trifluoromethoxy)phenyl)-1H-pyrazolo[3,4-b]pyridin-3-yl)methyl)acrylamide], the 50% inhibitory concentration (IC50) in experiment [1] was 390 nM; in experiment [2], 34000 nM; in experiment [3], 99 nM; in experiment [4], 68 nM.

With `O=C(/C=C/CF)N1CC(c2nn(-c3ccc(OC(F)(F)F)cc3)c3ccnc(N4CC(O)C4)c23)C1` [Compound 137, (E)-4-fluoro-1-(3-(4-(3-hydroxyazetidin-1-yl)-1-(4-(trifluoromethoxy)phenyl)-1H-pyrazolo[4,3-c]pyridin-3-yl)azetidin-1-yl)but-2-en-1-one], the IC50 in experiment [1] amounted to 72 nM; in experiment [2], 5200 nM; in experiment [3] it was 26 nM; in experiment [4], 360 nM.

For the compound `C=CC(=O)N(C)Cc1nn(-c2ccc(OC(F)(F)F)cc2)c2nccc([C@H](O)CO)c12` [Compound 139, (S)-N-((4-(1,2-Dihydroxyethyl)-1-(4-(trifluoromethoxy)phenyl)-1H-pyrazolo[3,4-b]pyridin-3-yl)methyl)-N-methylacrylamide], the 50% inhibitory concentration (IC50) in experiment [1] is 31 nM; in experiment [2], 600 nM; in experiment [3] it was 12 nM; in experiment [4] it was 26 nM.

As to `C=CC(=O)NCc1nn(-c2ccc(OC(F)F)cc2)c2nccc(CO)c12` [Compound 140, N-((1-(4-(difluoromethoxy)phenyl)-4-(hydroxymethyl)-1H-pyrazolo[3,4-b]pyridin-3-yl)methyl)acrylamide], the IC50 worked out at 230 nM in experiment [1], 4400 nM in experiment [2], 440 nM in experiment [3] and 720 nM in experiment [4].

In the case of `C=C(F)C(=O)N1CC(c2nn(-c3ccc(OC(F)(F)F)cc3)c3nccc(N4CC([C@H](O)CO)C4)c23)C1` [Compound 141, (S)-1-(3-(4-(3-(1,2-dihydroxyethyl)azetidin-1-yl)-1-(4-(trifluoromethoxy)phenyl)-1H-pyrazolo[3,4-b]pyridin-3-yl)azetidin-1-yl)-2-fluoroprop-2-en-1-one], the half-inhibitory concentration (IC50) in experiment [1] is 27 nM; in experiment [2], 2000 nM; in experiment [3], 6.9 nM; in experiment [4], 54 nM.

For the compound `C=C(F)C(=O)N1CC(c2nn(-c3ccc(OC(F)(F)F)cc3)c3nccc(N4CC(CO)(CO)C4)c23)C1` [Compound 142, 1-(3-(4-(3,3-Bis(hydroxymethyl)azetidin-1-yl)-1-(4-(trifluoromethoxy)phenyl)-1H-pyrazolo[3,4-b]pyridin-3-yl)azetidin-1-yl)-2-fluoroprop-2-en-1-one], the half-inhibitory concentration (IC50) in experiment [1] was 150 nM; in experiment [2] it was 50000 nM; in experiment [3], 9 nM; in experiment [4], 330 nM.

For `C=CC(=O)NCc1nn(-c2ccc(OC(F)(F)F)cc2)c2nccc(N[C@H]3C[C@@H](O)C3)c12` [Compound 143, N-((4-((3-hydroxycyclobutyl)amino)-1-(4-(trifluoromethoxy)phenyl)-1H-pyrazolo[3,4-b]pyridin-3-yl)methyl)acrylamide], the IC50 in experiment [1] came out at 16 nM; in experiment [2] it was 50000 nM; in experiment [3] it was 65 nM; in experiment [4], 65 nM.

In the case of `C=CC(=O)NCc1nn(-c2ccc(OC(F)(F)F)cc2)c2nccc([C@H]3COC(=O)O3)c12` [Compound 144, (S)-N-((4-(2-Oxo-1,3-dioxolan-4-yl)-1-(4-(trifluoromethoxy)phenyl)-1H-pyrazolo[3,4-b]pyridin-3-yl)methyl)acrylamide], the IC50 in experiment [1] is 560 nM; in experiment [2], 50000 nM; in experiment [3] it was 55 nM; in experiment [4], 150 nM.

Take `O=C(NCc1nn(-c2ccc(OC(F)(F)F)cc2)c2nccc(CO)c12)C1=CCC1` [Compound 148, N-((4-(Hydroxymethyl)-1-(4-(trifluoromethoxy)phenyl)-1H-pyrazolo[3,4-b]pyridin-3-yl)methyl)cyclobut-1-enecarboxamide]: the IC50 in experiment [1] came out at 17 nM; in experiment [2] it was 280 nM; in experiment [3], 14 nM; in experiment [4] it was 90 nM.

For `O=C(C1=CCCC1)N1CC(c2nn(-c3ccc(OC(F)(F)F)cc3)c3nccc(CO)c23)C1` [Compound 150, Cyclopent-1-en-1-yl(3-(4-(hydroxymethyl)-1-(4-(trifluoromethoxy)phenyl)-1H-pyrazolo[3,4-b]pyridin-3-yl)azetidin-1-yl)methanone], the concentration for half-maximal inhibition (IC50) in experiment [1] came to 560 nM; in experiment [2], 50000 nM; in experiment [3], 460 nM; in experiment [4], 1200 nM.

`C/C=C(\C)C(=O)N1CC(c2nn(-c3ccc(OC(F)(F)F)cc3)c3nccc(CO)c23)C1` [Compound 151, (E)-1-(3-(4-(Hydroxymethyl)-1-(4-(trifluoromethoxy)phenyl)-1H-pyrazolo[3,4-b]pyridin-3-yl)azetidin-1-yl)-2-methylbut-2-en-1-one]: the IC50 in experiment [1] was 680 nM; in experiment [2], 50000 nM; in experiment [3] it was 570 nM; in experiment [4], 630 nM.

Regarding `O=C(C1=CCOC1)N1CC(c2nn(-c3ccc(OC(F)(F)F)cc3)c3nccc(CO)c23)C1` [Compound 152, (2,5-Dihydrofuran-3-yl)(3-(4-(hydroxymethyl)-1-(4-(trifluoromethoxy)phenyl)-1H-pyrazolo[3,4-b]pyridin-3-yl)azetidin-1-yl)methanone], the 50% inhibitory concentration (IC50) is 220 nM in experiment [1], 1200 nM in experiment [2], 140 nM in experiment [3] and 810 nM in experiment [4].

Turning to `C=C(F)C(=O)NCc1nn(-c2ccc(OC(F)(F)F)cc2)c2nccc([C@H](O)CO)c12` [Compound 155, (S)-N-((4-(1,2-Dihydroxyethyl)-1-(4-(trifluoromethoxy)phenyl)-1H-pyrazolo[3,4-b]pyridin-3-yl)methyl)-2-fluoroacrylamide], the IC50 in experiment [1] amounted to 320 nM; in experiment [2], 6900 nM; in experiment [3], 160 nM; in experiment [4], 350 nM.

These data come from patent US12110276B2 (Genentech, Inc., priority 2021, dated 2024).
